Like-named read-outs stand apart in the source and are kept apart here.
Legend:
[1] = molecular target: RSK1 (Homo sapiens, UniProt Q15418); assay: In vitro assay against recombinant kinases (FIG. 2); assay type: biochemical
Method: (§1) Assays were run in vitro against recombinant kinases. The activity is reported for each kinase, grey histograms for CH21, white for C14 and gradation grey for C1. […] Therefore, C1 and C14 affect differently the Aurora kinase family.
(§2) The profiling was performed at the MRC (Dundee University), in duplicate, on a set of 121 kinases. The panel is representative of the major different classes of kinases. Compounds were used at the concentration of 1 μM. In vitro, IC50 were determined on recombinant kinases by Reaction biology Corp (USA).

[2] = molecular target: RSK2 (Homo sapiens, UniProt P51812); assay: as above; assay type: biochemical
Method: as §1, §2

[3] = molecular target: Src (Homo sapiens, UniProt P12931); assay: as above; assay type: biochemical
Method: as §1, §2

[4] = system: HeLa cells stably expressing aurora B-GFP; assay: Time-lapse of HeLa cells expressing aurora B-GFP; assay type: cell-based; settings: 0.5 μM; continuous imaging
Method: FIG. 7A: Cells treated by either DMSO (CO: control) or C1 (0.5 μM) or C14 (0.5 μM) were continuously imaged with a ZEISS confocal microscope. […] Mitotic cells were found fluorescent and GFP was concentrated on the centromeres. In control conditions, centromere aligned at metaphase and upon anaphase ongoing fluorescence concentrates on the spindle and finally in the midbody (A, CO). The shape of the cells is visualized by white dotted lines.
HeLa cells expressing aurora B-GFP were treated by either C14 (0.5 μM) or C1 (0.5 μM) or DMSO (control; Co). Mitotic cells were continuously imaged under controlled conditions (37° C. and 5% CO2). The localisation of aurora B-GFP is represented and the elapsed time indicated in the three conditions (FIG. 7A). Control cells divided normally; Aurora B presented on the centromeres (FIG. 7A, CO, To and 10 min) was then transferred on microtubules (FIG. 7A, CO 45 min) and finally concentrated in the mid body (FIG. 7A, CO, 1 h). […] These cells escaped from mitosis without anaphase and gave rise to micronuclei (FIG. 7B, C1). In the presence of C14 (0.5 μM), chromosome aligned normally (FIG. 7B, C14 To) and aurora B-GFP was found accumulated in the mid-zone (FIG. 7B, C14, 18 min, 40 min and 2 h). Finally, these cells spread again without division (FIG. 7B, C14 4 h). […]

[5] = system: HeLa cells; assay: Cell viability / antiproliferative assay; assay type: cell-based; settings: Homo sapiens, HeLa
Description: Antiproliferative assays with HeLa cells have been performed with the preferred compounds and compared to the C1 and C2. The average of three independent experiments is shown. IC50 obtained with C1 and C2 were previously reported in Hoang et al, 2009, and are indicated for comparison. The lateral chain of each molecule is recalled, knowing that all the molecules have an oxo group at position 11. IC50 are indicated, i.e. the concentration that induced 50% death.
(§3) H358, H322 (lung cancer cells), U373 (glioblastomes) and HeLa ([…]) were grown in DMEM (1.5 g/L glucose) whereas HL60 (human myeloid cell line) cells were in RPMI 1640. U2OS (a human osteosarcoma cell line) cells were cultured in McCoy's Medium 5 A and liver cells (SK Hep 1) in DMEM (4 g/L glucose, (Gibco-Invitrogen). Media (Gibco-Invitrogen), were supplemented with 10% heat-inactivated foetal bovine serum (Gibco-Invitrogen), L-glutamine (2 mM), penicillin (100 UI/ml) and streptomycin (100 μg/ml).
(§4) Cell proliferation assays were conducted in 96 well culture plates. Assays were run in triplicate. Cell viability was estimated upon 72 h of treatment with varying concentrations of compound by addition of CellTiter 96Queous one Solution Reagent (Promega) directly to culture wells under conditions defined by the manufacturer.

[6] = molecular target: T1, Aurora A (Homo sapiens, UniProt O14965); assay: Kinase profiling in vitro at 1 μM; assay type: biochemical; settings: for remaining activity at 1 µM / effect on kinase activity (FIG. 2, in words): Aurora A; for remaining activity at 1 µM: compound at 1 μM, read-out: percentage of remaining activity of recombinant kinase; for effect on kinase activity (FIG. 2, in words): recombinant kinase in vitro
T1 sequence (O14965 1-403): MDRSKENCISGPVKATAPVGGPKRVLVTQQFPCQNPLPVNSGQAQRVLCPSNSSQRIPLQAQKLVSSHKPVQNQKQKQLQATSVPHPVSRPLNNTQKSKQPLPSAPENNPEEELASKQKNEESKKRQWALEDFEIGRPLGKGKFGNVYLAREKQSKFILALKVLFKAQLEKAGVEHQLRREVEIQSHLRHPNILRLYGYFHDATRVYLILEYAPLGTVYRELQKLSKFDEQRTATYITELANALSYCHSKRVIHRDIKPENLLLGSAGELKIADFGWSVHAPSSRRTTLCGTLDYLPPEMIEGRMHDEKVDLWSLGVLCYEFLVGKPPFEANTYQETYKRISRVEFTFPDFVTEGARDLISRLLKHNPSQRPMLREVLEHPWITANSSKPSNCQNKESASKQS
Method: as §1
The specificity of C14 was tested, in vitro, against 121 kinases representative of the kinome. Assays run in duplicate, at the concentration of 1 μM, were performed by MRC (Dundee, UK). Results are represented in FIG. 1. The main targets are highlighted in FIG. 1B.
In addition, the percentage of remaining activity of recombinant kinases Aurora kinases A and B and Checkpoint kinases 1 and 2 at the concentration of 1 μM of C1, C2 and C14 have been determined.
as §2

[7] = system: H322; assay: Cell viability test (CellTiter 96 AQueous One Solution); assay type: cell-based; settings: NCI-H322; H322 (Lung); 72 h of treatment; read-out: IC50 (cell line viability)
Method: as §3, §4

[8] = system: SkHep1; assay: as above; assay type: cell-based; settings: Homo sapiens, SK-HEP1; SkHep1 (Liver cells); 72 h of treatment; read-out: IC50 (cell line viability)
Method: as §3, §4

[9] = 72 h, HeLa (Cervix), 72 h of treatment, read-out: IC50 (cell line viability)

Chain of RSK2 (P51812 whole entry): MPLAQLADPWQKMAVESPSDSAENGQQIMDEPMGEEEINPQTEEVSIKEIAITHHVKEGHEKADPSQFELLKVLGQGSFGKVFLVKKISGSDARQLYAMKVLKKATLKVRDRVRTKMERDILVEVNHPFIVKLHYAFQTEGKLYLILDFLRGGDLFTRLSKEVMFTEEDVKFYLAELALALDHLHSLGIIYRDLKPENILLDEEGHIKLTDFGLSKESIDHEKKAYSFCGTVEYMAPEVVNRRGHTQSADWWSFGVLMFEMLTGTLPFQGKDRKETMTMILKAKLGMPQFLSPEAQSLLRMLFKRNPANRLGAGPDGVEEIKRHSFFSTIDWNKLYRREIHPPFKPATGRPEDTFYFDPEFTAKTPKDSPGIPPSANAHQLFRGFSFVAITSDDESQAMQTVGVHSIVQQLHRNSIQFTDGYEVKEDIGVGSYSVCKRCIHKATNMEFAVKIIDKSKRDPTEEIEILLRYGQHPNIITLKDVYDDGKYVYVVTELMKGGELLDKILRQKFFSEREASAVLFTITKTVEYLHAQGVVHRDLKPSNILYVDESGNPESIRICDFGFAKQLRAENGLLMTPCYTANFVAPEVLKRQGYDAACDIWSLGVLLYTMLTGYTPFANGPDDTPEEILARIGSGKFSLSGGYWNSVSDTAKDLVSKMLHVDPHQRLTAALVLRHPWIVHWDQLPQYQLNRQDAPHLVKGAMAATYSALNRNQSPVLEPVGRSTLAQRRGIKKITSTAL
Chain of Src (P12931 whole entry, species assumed): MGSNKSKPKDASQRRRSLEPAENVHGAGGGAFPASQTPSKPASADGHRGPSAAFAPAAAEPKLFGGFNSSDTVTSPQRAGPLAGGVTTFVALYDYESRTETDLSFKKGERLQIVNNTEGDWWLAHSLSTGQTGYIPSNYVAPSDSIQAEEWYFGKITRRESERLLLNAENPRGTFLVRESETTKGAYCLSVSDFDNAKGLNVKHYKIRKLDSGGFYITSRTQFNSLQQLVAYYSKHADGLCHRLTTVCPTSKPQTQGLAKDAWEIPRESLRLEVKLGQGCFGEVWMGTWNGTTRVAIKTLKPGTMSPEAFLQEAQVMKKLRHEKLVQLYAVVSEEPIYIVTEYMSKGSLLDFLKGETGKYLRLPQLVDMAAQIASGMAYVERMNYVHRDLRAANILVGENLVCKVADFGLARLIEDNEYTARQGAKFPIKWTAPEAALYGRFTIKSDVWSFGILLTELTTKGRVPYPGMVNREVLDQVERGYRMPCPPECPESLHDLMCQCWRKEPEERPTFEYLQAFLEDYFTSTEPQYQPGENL
Chain of RSK1 (Q15418 whole entry, species assumed): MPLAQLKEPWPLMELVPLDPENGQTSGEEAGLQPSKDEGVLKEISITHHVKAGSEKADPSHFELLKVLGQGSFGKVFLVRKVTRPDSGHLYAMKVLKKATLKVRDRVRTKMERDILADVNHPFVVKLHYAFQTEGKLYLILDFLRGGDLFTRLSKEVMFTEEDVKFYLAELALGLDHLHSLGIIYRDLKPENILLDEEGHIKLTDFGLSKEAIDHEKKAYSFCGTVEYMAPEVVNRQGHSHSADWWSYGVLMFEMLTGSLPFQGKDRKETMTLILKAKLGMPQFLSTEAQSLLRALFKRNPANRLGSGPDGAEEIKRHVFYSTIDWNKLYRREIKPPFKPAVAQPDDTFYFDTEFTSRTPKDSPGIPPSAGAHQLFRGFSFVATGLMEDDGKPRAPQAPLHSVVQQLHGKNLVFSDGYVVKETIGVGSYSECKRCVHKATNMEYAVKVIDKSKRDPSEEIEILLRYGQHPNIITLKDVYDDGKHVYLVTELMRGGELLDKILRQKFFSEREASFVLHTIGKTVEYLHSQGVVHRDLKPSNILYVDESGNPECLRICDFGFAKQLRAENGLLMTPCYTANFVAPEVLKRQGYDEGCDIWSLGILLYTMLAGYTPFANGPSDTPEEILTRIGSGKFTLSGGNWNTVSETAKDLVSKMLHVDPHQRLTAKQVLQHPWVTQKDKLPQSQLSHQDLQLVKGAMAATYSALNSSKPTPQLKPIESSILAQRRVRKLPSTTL

| SMILES | effect on kinase activity (FIG. 2, in words) [1] | effect on kinase activity (FIG. 2, in words) [2] | effect on kinase activity (FIG. 2, in words) [3] | impairment of mitosis (in words) [4] | IC50 [5, 9] [nM] | IC50 ([5]; HeLa cells, average of three independent experiments, concentration that induced 50% death, read-out: IC50 (in nM), antiproliferative assay) [nM] | remaining activity at 1 µM [6] [%] | effect on kinase activity (FIG. 2, in words) [6] | remaining activity ([6]; at 1 μM) [%] | IC50 [7] [nM] | IC50 [8] [nM] |
| --- | --- | --- | --- | --- | --- | --- | --- | --- | --- | --- | --- |
| Cc1c[nH]c(=O)c2c1[nH]c1ccc3cc(OCCN(C)C)ccc3c12 [Compound C14, 3-(2-N,N-Dimethylaminoethoxy)-8-methyl-7H,10H-benzo[e]pyrido(4,3-b)indol-11-one] | not affected | not affected | not affected | affected cytokinesis | 110 | 170 ± 82 | 76 | not affected | 76 | > 4000 | 2000 |
| Cc1cncc2c1[nH]c1ccc3cc(OCCN(C)C)ccc3c12 [CH21, 3-(2-N,N-dimethylaminoethyloxy)-8-methyl-7H-benzo[e]pyrido(4,3-b)indole] | None of these kinases were significantly affected | None of these kinases were significantly affected | None of these kinases were significantly affected |  | 350 |  |  | None of these kinases were significantly affected |  | 800 | 450 |
| CCc1c[nH]c(=O)c2c1[nH]c1ccc3cc(OC)ccc3c12 [Compound C1, reference compound] | highly inhibited | highly inhibited | highly inhibited | prevented anaphase ongoing | 960 |  | 7 | highly inhibited |  |  |  |

From US20140073637A1, “AMINO-SUBSTITUTED-ALKYLOXY-BENZO[E]PYRIDO[4,3-B]INDOLE DERIVATIVES AS NEW POTENT KINASE INHIBITORS” (INSTITUT CURIE, priority 2011, published 2014)
